Measurements taken from patent US10131635B2, “Compositions and methods of using the compositions for plaque softening” (ALUMEND, LLC, priority 2013, dated 2018).
“Also recorded” adds a separate entry of the source.

How the values were obtained:
[1] = Storage stability of the naphthalimide dimer (solution and powder); type: physicochemical
Text: A preparative HPLC approach was used to isolate and specifically purify the compound of formula (V) dimer from the compound of formula (V) naphthalimide product produced from the ethanol crystallization. The HPLC method used was based on the purity method outlined above; however, method modifications were made to replace acetonitrile with ethanol and TFA with acetic acid in the mobile phase. The preparative separation utilized a C18 column (X-bridge, 10 μm, 19×250 mm, Waters). The mobile phase consisted of mobile phase A, 0.1% acetic acid (aq), and mobile phase B, 9:1 ethanol:water (0.1% v/v acetic acid). The column was pre-equilibrated at a starting mobile phase of 95% A:5% B for 20 minutes, at the start of the gradient was a 2 minute hold followed by a linear gradient to 90% B at 40 minutes and a 10 minute hold. An injection volume of 8.5 mL (12 mg/mL purified compound of formula (V)) and flow rate of 8.5 mL/minute were used as well as a detector wavelength of 440 nm. The compound of formula (V) fractions were collected and analyzed using the analytical purity method presented above. Fractions meeting a minimum purity criterion were combined and the solvent driven off by rotovapping the solution to dryness. […] Finally the product was quantitatively transferred from the round bottom flask to a freeze drying flask by dissolving the product in a minimal amount of deionized water. […]

artery = test: Artery treated with composition, angioplasty and photoactivation: fissure observation; parameters: species or system human
Description: The tissue was an artery approximately 7.4 mm in diameter. An Ultra-thin SDS 8 mm×30 mm catheter was used to dilate the artery to 7.55 mm (approximately a 2% overstretch). A fissure or a possible dissection running down the length of the tissue sample was observed.
A section (6.5 cm in length) of artery was exposed to the composition for 5 minutes. An 80 mm catheter was used to impart a 25% overstretch to the artery. The angioplasty was followed by photoactivation at 1800 mW for 60 seconds using the same 80 mm catheter with a 60 mm light fiber centered in the catheter.
A catheter with an 80 mm treatment zone balloon was used however the photoactivating light fiber was only 60 mm in length. During activation it was noted that the light fiber was shifted distally in the catheter. This meant that the distal end of the artery was receiving photoactivation, however, the proximal end received little or no light. A fissure down the length of the artery was again observed.

[2] = test system: hard and soft plaque of common and lower femoral artery; test: Tissue immersion: hardness of plaque by manipulation with a forcep; parameters: species or system human; conditions: PBS pH 7.4
Text: A sample of human tissue from the common and lower femoral artery was received. It was stored in saline and refrigerated until use. Based upon visual and tactile observations, the arteries were approximately 7-8 mm in diameter and contained evidence of both hard and soft plaque. The soft plaque has a yellow fatty appearance that is distinguishable from the vessel wall. The hard plaque presents itself as hard pieces of material that can be pulled (with a forceps) from the soft plaque. Sections of the artery suitable for catheter work were segregated and stored in phosphate buffered saline (PBS), pH=7.4. From the remaining arterial sections, pieces of tissue containing both hard and soft plaque were removed. These pieces were either placed in a solution of PBS (pH=7.4), or dimeric naphthalimide, such as a compound of formula (V) (which is in PBS, pH=7.4). Prior to immersion in either solution the relative hardness of the plaque was evaluated via manual manipulation with a forcep. After a 5 minute soak in solution (typical exposure time), no difference in the samples soaked in PBS was noticed (control). […] The samples were then left in their respective solutions for an additional 90 minutes.

[3] = test system: plaque in diseased arteries from limb amputations; test: Plaque penetration: diseased arteries soaked with composition, balloon and light activation, visual and histological examination; parameters: species or system human; conditions: 2 mg/mL in PBS pH 7.4, 5 minute soak
Description: Diseased arteries were obtained from limb amputations (leg) due to advanced Periperal Arterial Disease (PAD) from patients at a regional hospital. The received arteries were evaluated and chosen such that the diseased section was of reasonable size to accommodate the treatment catheter balloon length being used. The catheter balloon diameter used was also matched to the diameter of the artery and capable of achieving a 1:1.25 (ratio of artery diameter to balloon diameter) overstretch. The artery was laid in a petri dish and an angioplasty balloon was inserted and inflated for 60 seconds to impart the desired overstretch. While the angioplasty balloon was inflated a permanent marker was used to define the treatment zone (where the overstretch was imparted by the balloon) on the outer surface of the artery. The angioplasty balloon was deflated and removed. The inner lumen of the diseased artery was exposed to a plaque softening composition comprising a compound of formula (V) naphthalimide formulation (2 mg/mL in phosphate buffered saline, pH=7.4) for a period of 5 minutes. For the purpose of filling the artery, one end was clamped, the artery was held upright and a syringe was used to dispense the naphthalimide solution until the inner lumen was filled. The open end of the artery was then clamped and the soaking period of 5 minutes commenced. […] Arteries were cut open lengthwise and the treated section was evaluated by visual examination.
Prior to cutting the artery for visual examination samples from the treated and untreated sections were collected and preserved for histological examination. […] After this time, samples were stored in a −80° C. freezer until ready for further analysis. […] The crystalline nature of hard plaque is readily visible without staining. Under this magnification the crystalline structure of the calcific plaque was readily visible, as shown in FIG. 8 the dark area between the two lighter colored areas of the media. […]

degradation of dimer in powder form ([1]; periods exceeding two years of storage in a dessicator at −20° C.): no evidence of degradation
stability of dimer solution (excellent stability for periods up to) ([1]; solution at pH 7.4): up to 18 months
SMILES: NCCOCCOCCN1C(=O)c2cccc3c(NCCOCCOCCNc4ccc5c6c(cccc46)C(=O)N(CCOCCOCCN)C5=O)ccc(c23)C1=O [compound of formula (V)]
repair of fissure (artery; angioplasty, then composition, distal part with adequate photoactivation): there appeared to be a seam indicating repair
fissure in opened artery (artery; composition 5 minutes, then angioplasty 25% overstretch, photoactivation 1800 mW 60 seconds): no fissure observed
relative hardness of plaque ([2]; after a 5 minute soak): slight softening
relative hardness of plaque ([2]; after an additional 90 minutes in solution): significantly softer and more pliable
observation of tacking of intimal flaps ([3]; 447 nm 625 mW/cm 60 seconds): tacking of intimal flaps
visual observation of plaque softness in treated region ([3]; 447 nm 625 mW/cm 60 seconds): apparent softened plaque in the treated region; also recorded: more malleable
calcium crystals under microscope, treated vs untreated sections ([3]; light activation): less evidence of calcium crystals
